Data set [1] deals with fungus-derived tyrosinase. As to the kind of experiment: in vitro tyrosinase inhibition, dopachrome formation by visible spectrophotometry (475 nm). Format: biochemical. The conditions noted are these: in words. The text has this: The efficacy of the various combination according to the invention have been studied in vitro by measuring out, using visible spectrophotometry (475 nm), the quantity of dopachrome formed during the chain of tyrosine-oxidation reactions. These oxidation reactions are catalyzed in vitro using fungus-derived tyrosinase in the presence of a co-substrate (for example, a small quantity of L-dopa) in order to trigger the hydroxylation reaction of L-tyrosine into L-dopa, this latter being then oxidized by catalysis into dopaquinone, then into dopachrome, an intermediate product formed before the non-enzymatic oxidation reactions leading to melanin formation.
Accordingly, the concentration of dopachrome formed over time is monitored in the presence of various inhibitors of tyrosinasic activity.
The concentrations of inhibitors are expressed as molar percents in relation to the concentration of tyrosine present in the reactive medium.
The inhibitory effect may be expressed, in relation to the control curve (absence of inhibitor) by lowering of the quantity of dopachrome formed and/or by a slowing of dopachrome-formation kinetics. […]

For another data set, the system named is melanin biosynthesis. As to the kind of experiment: depigmenting action (studies on substances used singly or in combination). The conditions noted are these: in words. The text has this:
In these latter, at least one of the active ingredients may be liposomes.

The next data set concerns melanocytes. The following applies: in words, prior art; cited from earlier work.

As for `O=C(O)/C=C/c1ccc(O)c(O)c1` [caffeic acid], in data set [1], the “inhibition of tyrosinasic activity leading to limited formation of dopachrome” value is “inhibition of tyrosinasic activity”. For the same compound, the depigmenting action entry with melanin biosynthesis was “especially interesting depigmenting action”.
As for `Oc1ccc(O)cc1` [hydroquinone], the “irritation and cytotoxicity for melanocytes” value in the data set on melanocytes is “especially irritating and cytotoxic for melanocytes”.

The record behind these values is US5164185A, “Pharmaceutical and cosmetic depigmentation compositions with a caffeic acid base” (priority 1989, dated 1992).
